In one assay the test system is Cal-27. In words: MTT survival, Cal-27 oral cancer. It is filed as cell-based, human. The settings on record: Cal-27, 10 μM. On the procedure:
(§1) Next, in vitro cytotoxicity of the multiple compounds in various cell lines was evaluated, which also was performed using MTT colorimetric assay. […] Comparing breast cancer cells MCF-7 with other cancer cells, most selected compounds had higher inhibition activity to MCF-7 cells. Therefore, breast cancer cells MCF-7 were chosen to be the research target in the following experiments.

For the next assay, the system named is A375. Put plainly: MTT survival, A375 melanoma. The settings on record: A375, 10 μM. The class given is cell-based, human. As to the method:
as §1

The subject of a further assay is 293T. Put plainly: MTT survival, 293T kidney cancer. It is filed as cell-based, human. On the procedure:
as §1

The test system of another assay is Ca-922. In words: MTT survival, Ca-922 oral cancer. The class given is cell-based, human. The settings on record: Ca-922, 10 μM. On the procedure:
as §1

For a further assay, the system named is A549. In words: MTT survival, A549 lung cancer. The note with it: A549, 10 μM. The class given is cell-based, human. On the procedure: as §1
A further assay deals with H1335. Put plainly: MTT survival, H1335 lung cancer. The note with it: H1335, 10 μM. The class given is cell-based, human. On the procedure: as §1
Another assay has as its system A2058. In words: MTT survival, A2058 melanoma. The note with it: A2058, 10 μM. The class given is cell-based, human. On the procedure: as §1
Assay [1] deals with breast cancer cells MCF-7. Put plainly: Cell cycle analysis by flow cytometry (PI staining). It is filed as cell-based, human. The settings on record: MCF-7, 5 μM, 24 hours; control 11.54%. On the procedure:
This experiment was performed by treating breast cancer cells MCF-7 with compounds, and then cell cycle was analyzed using flow cytometry known by the skilled person in the art. Firstly, breast cancer cells MCF-7 were treated with the prepared compounds (5 μM) for 24 hours and stained with propidium iodide (PI). Approximately 10000 cells from each sample were analyzed with FACScan flow cytometer and software. […] The sub-G1 DNA Peaks for compounds 4, 5, 7, 18, 21, 23 and 24 were 20.64%, 17.92%, 26.22%, 11.95%, 19.85%, 4.35% and 33.89% respectively (data not shown), while the sub-G1 DNA peak for control (without any drug treatment) was 11.54%.

A further assay has as its system MCF-7. In words: MTT survival, MCF-7 breast cancer. It is filed as cell-based, human. The settings on record: MCF-7, 10 μM. On the procedure:
as §1

For a further assay, the system named is mouse melanoma cells B16. Put plainly: MTT growth inhibition on murine melanoma cells (FIG. 1). The note with it: 10 μM, 48 hours. The class given is cell-based. As to the method: In addition, for recognizing whether the prepared disulfides had cytotoxicity to normal cells and murine cells, human dermal fibroblasts and mouse melanoma cells B16 were selected as the models using MTT colorimetric assay. First, fibroblasts or B16 cells were seeded in 96-well culture plate at 2500 cells per well and cultivated overnight until cell attachment. Each compound (10 μM) was added into the culture media in triplicate and incubated for 48 hours, and finally MTT reagent was added into each well to detect absorbance.
Please refer to FIG. 1, which illustrates the growth inhibition of various compounds to human dermal fibroblast and B16 cells.

Assay [2] concerns phosphorylated p38 protein. Put plainly: Phosphorylated p38 expression by immunoblotting in MCF-7 cells. The class given is cell-based, human. The settings on record: MCF-7, 24-hour treatment, different concentrations. On the procedure:
P38 protein in p38 mitogen-activated protein kinase (MAPK) pathway was chosen to be the index of apoptosis in this experiment, and phosphorylated p38 expression was evaluated using immunoblotting assay known by the skilled person in the art. Cellular protein was harvested after the 24-hour treatment of compound 24 on MCF-7 cells, and then resolved with sodium dodecyl sulfate (SDS)-polyacrylamide gel electrophoresis and developed using immunoblotting. […] In combination with aforementioned experimental results, compound 24 and other compounds could induce cancer cell apoptosis.

A further assay has as its system melanoma cells B16 tumor. Put plainly: Antitumor activity in B16 tumor-bearing mice. The class given is in vivo. The settings on record: injection into sole of feet, B16 in C57BL/6 mice. On the procedure:
Firstly, a total of 5×10^6 melanoma cells B16 were inoculated into female C57BL/6 mice (about 19˜21 grams/7 to 9 weeks). […] When tumor reached about 4 mm×4 mm in diameter, mice were separated into groups. Each group had four mice in each experiment. Tumor volume were majored by calipers each two days after compound injection into each sole of feet of mice or without compound injection (control), and tumor volume was calculated by following formula: Tumor volume=[…] (Equation I)

Here are results for nine compounds from patent US8680155B2, “Synthesis and antitumor activity of novel bis(benzylidene-benzenamine)disulfides” (Kaohsiung Medical University, priority 2011, dated 2014).

In the case of `Cc1cc(C(=Nc2ccccc2)SSC(=Nc2ccccc2)c2ccc([N+](=O)[O-])c(C)c2)ccc1[N+](=O)[O-]` [Compound 1], the “Survival (% control) of compound (10 μM)” value with Cal-27 worked out at 100.9 ± 0.09 % control; in the assay with A375, 90.3 ± 0.05 % control; in the assay with 293T, 76.5 ± 0.19 % control; in the assay with Ca-922, 80.8 ± 0.08 % control; in the assay on A549 it was 71.5 ± 0.09 % control; in the assay on H1335, 69.8 ± 0.13 % control.

In the case of `O=[N+]([O-])c1ccc(C(=Nc2ccc(C(F)(F)F)cc2)SSC(=Nc2ccc(C(F)(F)F)cc2)c2ccc([N+](=O)[O-])cc2)cc1` [Compound 4], the “Survival (% control) of compound (10 μM)” value is recorded as 102.5 ± 0.06 % control in the assay with Cal-27; 84.6 ± 0.08 % control with A375; 64.6 ± 0.28 % control with 293T; 92.6 ± 0.05 % control in the assay on A2058; 80.1 ± 0.08 % control in the assay with Ca-922; 65.4 ± 0.11 % control with A549. Besides, the “Survival (% control) of compound (10 μM)” value in the assay with H1335 was found to be 66.0 ± 0.14 % control; in the assay on MCF-7, 59.6 ± 0.28 % control. Further, the “sub-G1 DNA peak” value in assay [1] was 20.64%.

On to `O=[N+]([O-])c1ccc(C(=Nc2ccc(Cl)cc2)SSC(=Nc2ccc(Cl)cc2)c2ccc([N+](=O)[O-])cc2)cc1` [Compound 5], for which the “Survival (% control) of compound (10 μM)” value turned out to be 100.1 ± 0.07 % control in the assay on Cal-27; 79.4 ± 0.11 % control in the assay on A375; 70.9 ± 0.24 % control in the assay on 293T; 97.5 ± 0.02 % control with A2058; 79.4 ± 0.08 % control in the assay on Ca-922; 82.4 ± 0.06 % control with A549. In addition, the figures for the “Survival (% control) of compound (10 μM)” value in the assay on H1335 and with MCF-7 were 75.8 ± 0.10 % control and 54.3 ± 0.32 % control, respectively. In addition, the “sub-G1 DNA peak” value in assay [1] stood at 17.92%.

Turning to `Cc1cc(C(=Nc2ccc(Cl)cc2)SSC(=Nc2ccc(Cl)cc2)c2ccc([N+](=O)[O-])c(C)c2)ccc1[N+](=O)[O-]` [Compound 7], the “Survival (% control) of compound (10 μM)” value with Cal-27 is on record as 101.7 ± 0.09 % control; in the assay on A375, 92.4 ± 0.04 % control; in the assay on 293T it was 71.2 ± 0.23 % control; in the assay with A2058, 99.6 ± 0.02 % control; in the assay with Ca-922, 96.2 ± 0.02 % control; with A549 it was 78.7 ± 0.07 % control. Further, the “Survival (% control) of compound (10 μM)” value in the assay with H1335 turned out to be 67.4 ± 0.13 % control; in the assay with MCF-7, 51.7 ± 0.34 % control. The “sub-G1 DNA peak” value in assay [1] amounted to 26.22%.

Regarding `Cc1ccc(N=C(SSC(=Nc2ccc(C)c([N+](=O)[O-])c2)c2ccc(C(F)(F)F)cc2)c2ccc(C(F)(F)F)cc2)cc1[N+](=O)[O-]` [Compound 17], the “Survival (% control) of compound (10 μM)” value is recorded as 107.1 ± 0.08 % control in the assay with Cal-27; 103.2 ± 0.02 % control in the assay on A375; 75.3 ± 0.21 % control in the assay on 293T; 82.1 ± 0.07 % control in the assay with Ca-922; 76.9 ± 0.07 % control with A549; 81.4 ± 0.08 % control in the assay with H1335.

Turning to `Cc1c(N=C(SSC(=Nc2cccc([N+](=O)[O-])c2C)c2ccc(F)cc2)c2ccc(F)cc2)cccc1[N+](=O)[O-]` [Compound 18], the “Survival (% control) of compound (10 μM)” value in the assay on Cal-27 is given as 94.9 ± 0.07 % control; in the assay with A375, 91.5 ± 0.04 % control; in the assay on 293T, 71.1 ± 0.23 % control; in the assay with A2058, 95.9 ± 0.02 % control; in the assay with Ca-922 it was 79.4 ± 0.09 % control; with A549, 75.5 ± 0.08 % control. The “Survival (% control) of compound (10 μM)” value is 70.0 ± 0.13 % control in the assay on H1335 and 33.1 ± 0.47 % control with MCF-7. Moreover, the “sub-G1 DNA peak” value in assay [1] is 11.95%.

Take `Cc1ccc([N+](=O)[O-])cc1N=C(SSC(=Nc1cc([N+](=O)[O-])ccc1C)c1ccc(F)cc1)c1ccc(F)cc1` [Compound 21]: the “Survival (% control) of compound (10 μM)” value in the assay on Cal-27 was 76.6 ± 0.20 % control; in the assay on A375 it was 81.1 ± 0.10 % control; in the assay with 293T it was 32.8 ± 0.52 % control; in the assay on A2058, 76.3 ± 0.15 % control; in the assay on Ca-922, 66.7 ± 0.13 % control; in the assay on A549, 62.1 ± 0.12 % control. Besides, the results for the “Survival (% control) of compound (10 μM)” value with H1335 and with MCF-7 were 80.6 ± 0.08 % control and 13.8 ± 0.60 % control, respectively. Also, in assay [1], the “sub-G1 DNA peak” value is on record as 19.85%.

With `O=[N+]([O-])c1cc(N=C(SSC(=Nc2ccc(F)c([N+](=O)[O-])c2)c2ccc(C(F)(F)F)cc2)c2ccc(C(F)(F)F)cc2)ccc1F` [Compound 23], the “Survival (% control) of compound (10 μM)” value was 92.4 ± 0.16 % control in the assay with Cal-27; 94.3 ± 0.03 % control with A375; 57.8 ± 0.33 % control with 293T; 93.2 ± 0.04 % control with A2058; 65.8 ± 0.14 % control with Ca-922; 64.4 ± 0.12 % control in the assay with A549. Also, the “Survival (% control) of compound (10 μM)” value with H1335 was 80.2 ± 0.08 % control; with MCF-7 it was 57.1 ± 0.30 % control. In addition, the “growth inhibition / apoptosis in murine melanoma B16” value with mouse melanoma cells B16 is listed as “significantly made”. Also, the “sub-G1 DNA peak” value in assay [1] was found to be 4.35%.

With `Cc1c(N=C(SSC(=Nc2cccc([N+](=O)[O-])c2C)c2ccc(C(F)(F)F)cc2)c2ccc(C(F)(F)F)cc2)cccc1[N+](=O)[O-]` [Compound 24], the “Survival (% control) of compound (10 μM)” value with Cal-27 is recorded as 73.5 ± 0.22 % control; in the assay on A375, 59.5 ± 0.22 % control; in the assay on 293T, 24.2 ± 0.59 % control; in the assay with A2058, 34.9 ± 0.42 % control; in the assay with Ca-922, 45.5 ± 0.22 % control; with A549, 53.4 ± 0.15 % control. The “Survival (% control) of compound (10 μM)” value with H1335 came out at 26.0 ± 0.32 % control; in the assay on MCF-7 it was 8.6 ± 0.64 % control. The “growth inhibition / apoptosis in murine melanoma B16” value with mouse melanoma cells B16 was “significantly made”. Moreover, in [1], the “sub-G1 DNA peak” value amounted to 33.89%. Also, the “phosphorylation of p38 protein” value in [2] is on record as “dependent on the concentration”. Also, the “tumor volume over time” value with melanoma cells B16 tumor (2 mg/kg) was “not markedly increased”. In addition, the “tumor volume compared to the untreated group” value in the assay on melanoma cells B16 tumor (4 mg/kg) was “significantly suppressed”.
